For orientation: IC50 means the concentration that inhibits the measured activity by half. Read a low IC50 as greater potency in that assay.

Data set [1] deals with human gastric cancer cell line MGC-803. The data set can be described thus: MTT antiproliferation assay, MGC-803 cells. It is filed as cell-based. As to conditions: 48 h incubation, mean ± SD of triplicate experiments. The procedure:
(§1) The human gastric cancer cell line MGC-803 and human normal gastric epithelial cell line GES-1 were cultured in DMEM containing penicillin (100 U/mL), streptomycin (100 μg/mL), and 10% FBS at 37 °C with 5% CO2. Cells that used in experiments were passaged at least three times.
(§2) Cells were seeded in 96-well plates at a density of 5 × 10^4/well and cultured at 37 °C with 5% CO2 for 24 h. And then, compounds (1–5) in various concentrations were introduced with incubation for another 48 h. Finally, 10 μL MTT (5 mg/mL) was added to each well. After 4 h incubation, the medium was removed and 150 μL DMSO was added. Absorbance was read on a Microplate Reader at 570 nm (Bio Tek, Thenceforth, USA) (Li et al. [2014]). The MTT assay aims to evaluate the antiproliferative effects of the test compounds in MGC-803 cells and the cytotoxic effects in GES-1 cells.

Data set [2] concerns human normal gastric epithelial cell line GES-1. Nature of the data set: MTT cytotoxicity assay, GES-1 cells. It is filed as cell-based. As to conditions: GES1, 48 h incubation, mean ± SD of triplicate experiments. On the procedure:
as §1, §2

For another data set, the system named is MGC-803 cells. Nature of the data set: Annexin V-FITC/PI apoptosis assay by flow cytometry. As to conditions: MGC-803 cells, 1.0, 2.0, 4.0 μM, 24 h, compared with the control group. It is filed as cell-based, human. On the procedure:
The apoptosis effect of 2′-Z auraptene A (2) in MGC-803 cells was examined using the Annexin V-FITC/PI detection kit, according to the description of previously reported (Bakar et al. [2016]). Briefly, cells were seeded and treated with compound 2 (0, 1.0, 2.0, 4.0 μM) for 24 h. Cells were harvested and washed twice with cold PBS before incubating with annexin V and PI for 30 min in dark. And then the stained cells were detected and analyzed on FACS Calibur flow cytometry.
On the technique in general: A flow cytometer gives signals particle by particle.

Data set [3] has as its system Bax, Bcl-2 and cleaved caspase-3 in MGC-803 cells. Nature of the data set: Western blot of apoptosis-related proteins. It is filed as cell-based, human. The conditions noted are these: MGC-803 cells, 1.0, 2.0, 4.0 μM, 24 h. On the procedure: The detection of levels of apotosis-related proteins in MGC-803 cells was performed according to the reported western blot method (Zhang et al. [2015a]). Briefly, cells were treated with compound 2 (0, 1.0, 2.0, 4.0 μM) for 24 h and then harvested to detect the protein concentration using the BCA method. Total cellular protein was separated by an SDS/PAGE gel and transferred onto PVDF membranes using a semidry electroblotter. The membrane was blocked with non-fat milk solution (5%) for 1 h, and incubated subsequently with primary antibody at 4 °C overnight. Then TBST was used to wash the primary antibody and incubated with secondary antibody for 1 h at room temperature. Protein bands were visualized by enhanced chemiluminescence (ECL) and β-actin was used as a normalizing control.
For orientation: Immunoblotting shows a protein as a band on a membrane.

A short description of data set [4]: Solubility in aqueous media. It is filed as physicochemical. As to conditions: thermodynamic equilibrating conditions, compared with 2′-Z auraptene.

On to `C/C(=C/CC/C(C)=C\COc1ccc2ccc(=O)oc2c1)CO` [Compound 3, 7-(((2′Z,6′Z)-9′-hydroxy-3′,7′-dimethylocta-2′,6′-dien-1′-yl)oxy)-2H-chromen-2-one], for which the IC50 in data set [1] is 4.75 ± 1.02 µM; in data set [2], 25.6 ± 2.12 µM.
Turning to `C/C(=C/COc1ccc2ccc(=O)oc2c1)CCCO` [Compound 2, 2′-Z auraptene A], half-maximal inhibition in data set [1] (IC50) required 0.78 ± 0.13 µM. Also, it took 46 ± 3.11 µM to reach half-maximal inhibition in data set [2] (IC50). Also, the cellular apoptotic rates entry in the data set with MGC-803 cells is reported as “increased significantly in a dose-dependent manner”. Also, in data set [3], the “level of Bax protein” value is “increase”, the “level of Bcl-2 protein” value is given as “reduction” and the “level of cleaved caspase-3 protein” value is recorded as “increase”. In addition, the “limitation of solubility in aqueous media” value in data set [4] is “improved”.
With `C/C(=C/C(O)C/C(C)=C\COc1ccc2ccc(=O)oc2c1)CO` (stereo not drawn) [Compound 5, 7-(((2′Z,6′Z)-5′,9′-hydroxy-3′,7′-dimethylocta-2′,6′-dien-1′-yl)oxy)-2H-chromen-2-one], the IC50 in data set [1] is 10.8 ± 1.83 µM; in data set [2], 35.5 ± 2.21 µM.
Regarding `CC(C)=CCC/C(C)=C\COc1ccc2ccc(=O)oc2c1` [Compound 1, (Z)-7-((3′,7′-dimethylocta-2′,6′-dien-1′-yl)oxy)-2H-chromen-2-one], the IC50 in data set [1] was 10.4 ± 0.86 µM; in data set [2] it was 57 ± 2.31 µM.
For `C/C(=C/CC(O)/C(C)=C\COc1ccc2ccc(=O)oc2c1)CO` (stereo not drawn) [Compound 4, 7-(((2′Z,6′Z)-4′,9′-hydroxy-3′,7′-dimethylocta-2′,6′-dien-1′-yl)oxy)-2H-chromen-2-one], in that order: 6.78 ± 2.06 µM and 33.8 ± 1.46 µM.

For the origin of these results see paper PMC6028838, “A new terpene coumarin microbial transformed by Mucor polymorphosporus induces apoptosis of human gastric cancer cell line MGC-803” (Archives of Pharmacal Research, 2018).
